The values below come from US5716797A, “Stable two-part reagent for the measurement of creatine kinase activity” (Wako Pure Chemical Industries, Ltd., priority 1995, dated 1998).

Like-named read-outs stand apart in the source and are kept apart here.

The target in the assay is T1, creatine kinase (CK) in human serum (Homo sapiens, UniProt P06732).
T1 construct: Five fresh human serum samples were used; from tissue; host or cells: fresh human serum
The assay is described as follows: Inhibitory effect of oxidized products of SH compounds on CK activity (HK/G6PDH UV method, NAC 26 mM as reactivator). The format is biochemical. The following applies: for CK activity value / CK activity value, Average: 5 mM SH compound oxidized product; for CK activity value: NAC 26 mM, 37° C.; for CK activity value, Average: average of 5 samples; for activity at 5000 µM: read-out: CK activity, relative value. On the procedure:
Investigation on the inhibitory effect of oxidized products of SH compounds on CK activity
Thus, oxidized products of the SH compounds, respectively, were obtained.
NAC (26 mM) as CK reactivator, each 5 mM of SH compound oxidized product obtained above, 2.6 mM of ADP, 3.9 u/ml of HK (available from Oriental Yeast Co., Ltd.), 8.0 u/ml of G6PDH (available from Oriental Yeast Co., Ltd.), 2.6 mM of NADP, 21 mM of glucose, 10 mM of magnesium acetate, 6.5 mM of AMP, 0.013 mM of APSA, 0.1% (w/v) of sodium azide and 2 mM of EDTA-2Na were dissolved in 128 mM imidazole-acetate buffer (pH 6.7). The thus obtained solutions were adjusted to pH 6.7 with sodium hydroxide to obtain enzyme solutions.
An enzyme solution containing no SH compound oxidized product was prepared as a control standard solution.
Five fresh human serum samples were used.
To 8 μl of each sample was added 320 μl of each enzyme solution, followed by preincubation for 5 minutes. Then, 80 μl of the substrate solution was added to initiate the reaction and the change of absorbance per minute was measured for 3 minutes from 2 minutes after the addition of the substrate solution. The CK activity value was calculated from the molecular extinction coefficient of the NADPH produced.
As a measuring apparatus, an Autoanalyzer Hitachi Model 7150 was used, and the measurement was carried out at 37° C. by use of dual wavelength (λ1 =405 nm, λ2 =340 nm).
Tables 2 and 3 show the CK activity values of the 5 samples in each case and the average thereof.

[1] abbreviates: average with enzyme solution containing no SH compound oxidized product = 100%, 5 mM oxidized product.

T1 sequence (P06732 whole entry): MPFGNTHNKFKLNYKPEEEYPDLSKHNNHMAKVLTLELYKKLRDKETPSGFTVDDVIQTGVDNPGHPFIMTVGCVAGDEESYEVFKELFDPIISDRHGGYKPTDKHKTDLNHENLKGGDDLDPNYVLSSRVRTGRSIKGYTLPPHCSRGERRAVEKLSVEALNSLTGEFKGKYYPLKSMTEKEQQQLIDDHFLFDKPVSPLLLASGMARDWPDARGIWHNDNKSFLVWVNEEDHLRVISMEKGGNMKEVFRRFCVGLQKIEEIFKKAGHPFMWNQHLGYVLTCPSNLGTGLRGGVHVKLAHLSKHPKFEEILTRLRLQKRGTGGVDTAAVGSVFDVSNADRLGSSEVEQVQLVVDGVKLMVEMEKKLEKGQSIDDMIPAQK

With `OCCSSCCO` [2ME oxidized product], the “CK activity value, Average” value came to 226 IU/l and the activity at 5000 µM was 100%. The “inhibition of CK activity by oxidized product” value (shortened to “inhibition of CK activity”) (5 mM oxidized product) is reported as “hardly inhibited CK activity”. For the setting “Sample 1 (fresh human serum)”, the CK activity value is recorded as 155 IU/l. This compound also gave a CK activity value (Sample 2) of 427 IU/l. Further, the CK activity value (Sample 3) turned out to be 113 IU/l. The compound further showed a CK activity value (Sample 4) of 332 IU/l. The CK activity value (Sample 5) was 101 IU/l.
`O=S(=O)(O)CCSSCCS(=O)(=O)O` [2MES oxidized product]: the “CK activity value, Average” value came to 224 IU/l. Besides, the “inhibition of CK activity” value (5 mM oxidized product) is on record as “hardly inhibited CK activity”. Besides, the CK activity value (Sample 1 (fresh human serum)) came to 155 IU/l. For the setting “Sample 2”, this compound came in with a CK activity value of 418 IU/l. This compound showed a CK activity value (Sample 3) of 114 IU/l. Besides, the CK activity value (Sample 4) is reported as 335 IU/l. In addition, the CK activity value (Sample 5) is listed as 98 IU/l. For the same compound, the activity at 5000 µM under setting [1] turned out to be 99.3%.
As to `Nc1cc(O)nc(SSc2nc(N)cc(O)n2)n1` [AHMP oxidized product], the “CK activity value, Average” value is reported as 217 IU/l. For the same compound, the “inhibition of CK activity” value (5 mM oxidized product) is “hardly inhibited CK activity”. Further, the CK activity value (Sample 1 (fresh human serum)) was found to be 161 IU/l. Also, under “Sample 2”, the CK activity value amounted to 407 IU/l. The same compound registered a CK activity value (Sample 3) of 106 IU/l. Under “Sample 4”, this compound came in with a CK activity value of 322 IU/l. The CK activity value (Sample 5) is 97 IU/l. Also, the activity at 5000 µM under setting [1] came to 96%.
For `Nc1nc(SSc2nc(N)nc3c2ncn3[C@@H]2O[C@H](CO)[C@@H](O)[C@H]2O)c2ncn([C@@H]3O[C@H](CO)[C@@H](O)[C@H]3O)c2n1` [AMPR oxidized product], the “CK activity value, Average” value was 0 IU/l. For the same compound, under “Sample 1 (fresh human serum)”, the CK activity value was determined as 0 IU/l. The compound also showed a CK activity value (Sample 2) of 1 IU/l. Moreover, where the note is “Sample 3”, the CK activity value was 0 IU/l. Moreover, where the note is “Sample 4”, the CK activity value worked out at 1 IU/l. Moreover, the CK activity value (Sample 5) amounted to 0 IU/l. Further, the activity at 5000 µM under setting [1] stood at 0.2%.
Turning to `OC[C@H]1O[C@@H](SS[C@@H]2O[C@H](CO)[C@@H](O)[C@H](O)[C@H]2O)[C@H](O)[C@@H](O)[C@@H]1O` [TDG oxidized product], the “CK activity value, Average” value is listed as 204 IU/l. The “inhibition of CK activity” value (5 mM oxidized product) is reported as “hardly inhibited CK activity”. This compound yielded a CK activity value (Sample 1 (fresh human serum)) of 136 IU/l. The compound further showed a CK activity value (Sample 2) of 388 IU/l. The same compound gave a CK activity value (Sample 3) of 102 IU/l. In addition, under “Sample 4”, the CK activity value is 302 IU/l. This compound registered a CK activity value (Sample 5) of 90 IU/l. Moreover, the activity at 5000 µM under setting [1] was 90.2%.
For `OCC(O)CSSCC(O)CO` (stereo not shown) [TG oxidized product], the “CK activity value, Average” value is recorded as 226 IU/l. Also, the “inhibition of CK activity” value (5 mM oxidized product) was “hardly inhibited CK activity”. The CK activity value (Sample 1 (fresh human serum)) was 153 IU/l. Under “Sample 2”, the CK activity value came out at 422 IU/l. Further, the CK activity value (Sample 3) was found to be 112 IU/l. The compound also gave a CK activity value (Sample 4) of 333 IU/l. Moreover, the CK activity value (Sample 5) was 106 IU/l. Under setting [1], the activity at 5000 µM turned out to be 100%.
Regarding `c1ccc(SSc2ccccc2)cc1` [Thiophenol oxidized product], the “CK activity value, Average” value is reported as 99 IU/l and the activity at 5000 µM is 44.1%. In addition, under “Sample 1 (fresh human serum)”, the CK activity value is given as 73 IU/l. Moreover, the CK activity value (Sample 2) is 180 IU/l. Further, the CK activity value (Sample 3) worked out at 55 IU/l. Under “Sample 4”, the CK activity value is listed as 139 IU/l. The compound further registered a CK activity value (Sample 5) of 50 IU/l.
For Mercapto-succinic acid, the “CK activity value, Average” value is recorded as 183 IU/l. Also, the CK activity value (Sample 1 (fresh human serum)) is 122 IU/l. In addition, where the note is “Sample 2”, the CK activity value is given as 330 IU/l. Moreover, the CK activity value (Sample 3) is on record as 98 IU/l. The CK activity value (Sample 4) amounted to 285 IU/l. For the setting “Sample 5”, this compound gave a CK activity value of 80 IU/l. For the same compound, the “CK activity, relative value” under setting [1] was 81.0%.
